In patent publication US20090258840A1, “METHOD AND COMPOSITIONS FOR TREATING HEMATOLOGICAL MALIGNANCIES” (Gilead Sciences, Inc., priority 2006, published 2009):
Like-named read-outs stand apart in the source and are kept apart here.

Columns and labels:
[1] = dog, in vivo
Protocol: • Dogs were administered various prodrugs of cpr-PMEDAP as 0.2 mg/kg 30 minute IV infusions. […] Alanine was the L isomer. • Blood was collected into potassium EDTA and separated by centrifugation. Primary blood mononuclear cells (PBMCs) were collected using CPT tubes (sodium citrate). • For analysis, plasma samples were precipitated by addition of 100 μL acetonitrile containing internal standards (D4AP and TDF) to 100 μL of plasma for prodrug analysis. After protein precipitation by centrifugation, 100 μL was transferred into another tube to be dried and then reconstituted in 100 μL water with 0.2% formic acid. An aliquot of 20 μL was injected onto the column for LC/MS/MS analysis. Analysis was done using a 150×2.0 mm, 4 μm Synergi Fusion-RP 80A column (Phenomenex) and a multistage linear gradient from 0.5 to 99% acetonitrile in the presence of 0.2% formic acid at 0.25 mL/min. Analytes were detected using a Sciex API-4000 mass spectrometer using electrospray ionization in positive MRM mode. […] Separate aliquots of cells from each time point resuspended in 100% serum were used to establish the cell quantities in each sample. Cell samples were normalized to 15×10^6 cells per sample. […] 20 μL was injected for LC/MS/MS analysis using a 50×2.0 mm, 4 μm Synergi Hydro-RP 80A column (Phenomenex) and a multistage linear gradient from 0 to 95% acetonitrile in the presence of 0.2% formic acid at 1.0 mL/min. Analytes were detected using a Sciex API-4000 mass spectrometer using electrospray ionization in positive MRM mode. • After drying, samples for dephosphorylation were treated with 1 U of calf intestinal phosphatase (alkaline phosphotase, Sigma) for 2 h in manufacturer provided buffer. Samples were then adjusted to 60% acetonitrile dried and resuspended in 60% acetonitrile containing internal standards (TDF and D4AP) and analyzed for cpr-PMEDAP as described for direct PBMC analysis.

[2] = tested on: PHA-blast (human T-cells); assay: Anti-proliferation in human PHA-lymphoblasts (BrdU/XTT); format: cell-based; settings: read-out: Anti-Proliferation EC50
CEM (T-lymphoid) = assay: Anti-proliferation in CEM cells; format: cell-based, human; settings: read-out: Anti-Proliferation EC50
Protocol: (§1) Compounds were tested using human and canine lymphoblasts (stimulated with a T-cell mitogen phytohaemagglutinin (PHA) or a B-cell mitogen pokeweed mitogen (PWM)), two T-lymphoid cell lines derived from patients with acute lymphocytic leukemia (CEM and Molt-4), two myeloid cell lines derived from patients with acute myelogenous leukemia (KG-1 and HL-60), two B-lymphoid cell lines derived from Burkitt's lymphoma (Daudi and Raji), a B-lymphoid cell line from non-Hodgkin's lymphoma (RL), a T-lymphoid cell line from cutaneous T-lymphoma (PM-1), and a monocytic cell line from histiocytic lymphoma (U937). Lymphoblasts (150,000 cells per microtiter well) and leukemia/lymphoma cell lines (30,000 cells per well) were incubated with 5-fold serial dilutions of compounds for 3 days.

Molt 4 (T-lymphoid) = assay: Anti-proliferation in Molt 4 cells; format: cell-based, human; settings: read-out: Anti-Proliferation EC50
Protocol: as §1

KG-1 (Myeloid) = assay: Anti-proliferation in KG-1 cells; format: cell-based, human; settings: read-out: Anti-Proliferation EC50
Protocol: as §1

HL-60 (Myeloid) = assay: Anti-proliferation in HL-60 cells; format: cell-based, human; settings: read-out: Anti-Proliferation EC50
Protocol: as §1

RL (B-lymphoid) = assay: Anti-proliferation in RL cells; format: cell-based; settings: Homo sapiens, 72 h, 3 days incubation
Protocol: as §1

Daudi (B-lymphoid) = assay: Anti-proliferation in Daudi cells; format: cell-based, human; settings: 3 days incubation
Protocol: as §1

Raji (B-lymphoid) = assay: Anti-proliferation in Raji cells; format: cell-based, human; settings: 3 days incubation
Protocol: as §1

PM-1 (T-lymphoid) = assay: Anti-proliferation in PM-1 cells; format: cell-based, human; settings: read-out: Anti-Proliferation EC50
Protocol: as §1

U937 (Monocytic) = assay: Anti-proliferation in U937 cells; format: cell-based, human; settings: read-out: Anti-Proliferation EC50
[3] = tested on: lymphoblasts and leukemia/lymphoma cell lines; assay: Anti-proliferation, EC50 range over the cell panel; format: cell-based; settings: range over a variety of lymphoblasts and leukemia/lymphoma cell lines
Protocol: A variety of compounds that are used for treatment of hematologic malignancies were also tested, including a DNA polymerase inhibitor (ara-C), DNA polymerase/ribonucleotide reductase inhibitors (cladribine, clofarabine, fludarabine, gemcitabine), an adenosine deaminase inhibitor (deoxycoformycin), a DNA methylation inhibitor (decitabine), a […] (doxorubicin), and a mitosis inhibitor (vincristine). All compounds, with the exception of doxorubicin and vincristine, are nucleoside analogs; ara-C, gemcitabine, and decitabine are cytosine analogs and the rest are adenosine analogs. cpr-PMEDAP and PMEG can be considered adenosine and guanosine analogs, respectively. Compounds were tested using human and canine lymphoblasts (stimulated with a T-cell mitogen phytohaemagglutinin (PHA) or a B-cell mitogen pokeweed mitogen (PWM)), two T-lymphoid cell lines derived from patients with acute lymphocytic leukemia (CEM and Molt-4), two myeloid cell lines derived from patients with acute myelogenous leukemia (KG-1 and HL-60), two B-lymphoid cell lines derived from Burkitt's lymphoma (Daudi and Raji), a B-lymphoid cell line from non-Hodgkin's lymphoma (RL), a T-lymphoid cell line from cutaneous T-lymphoma (PM-1), and a monocytic cell line from histiocytic lymphoma (U937).
Lymphoblasts (150,000 cells per microtiter well) and leukemia/lymphoma cell lines (30,000 cells per well) were incubated with 5-fold serial dilutions of compounds for 3 days. BrdU assay was performed as follows: Lymphoblasts were incubated with 5-fold serial dilutions of compounds in microtiter plates (150,000 cells per well) for 3 days. On Day 3, cells were labeled with 10 μM BrdU for 3 hrs and the amount of BrdU incorporated into cellular DNA was quantified by Enzyme-Linked Immunosorbent Assay (ELISA). Alternatively, cells were incubated with 1 mg/mL XTT reagent (sodium 3,3′-[1[(phenylamino) carbonyl]-3,4-tetrazolium]-bis(4-methoxy-6-nitro) benzene sulfonic acid hydrate) and 1% PMS (phenazine methosulfate) for 2 hrs, and color change (mitochondrial dehydrogenase reduces yellow-colored XTT to orange-colored formazan salt) was quantified. […] Assays were repeated 2-20 times, until the standard error of the mean (SEM) became smaller than 50% of the mean value.

[4] = tested on: PWM-blast (human B-cells); assay: Anti-proliferation in human PWM-lymphoblasts (BrdU/XTT); format: cell-based; settings: B-cell, 72 h, 3 days incubation
[5] = tested on: PHA-blast (canine T-cells); assay: Anti-proliferation in canine PHA-lymphoblasts (BrdU/XTT); format: cell-based; settings: Canis lupus familiaris, T-cell, 72 h, 3 days incubation
[6] = tested on: PWM-blast (canine B-cells); assay: Anti-proliferation in canine PWM-lymphoblasts (BrdU/XTT); format: cell-based; settings: Canis lupus familiaris, B-cell, 72 h, 3 days incubation
Hygroscopicity = format: physicochemical
[7] = tested on: a variety of tumor cell lines; settings: in vitro cell culture; cited from earlier work
[8] = Homo sapiens, 72 h, CEM (T-lymphoid), 3 days incubation
[9] = Homo sapiens, 72 h, Molt 4 (T-lymphoid), 3 days incubation
[10] = Homo sapiens, 72 h, KG-1 (Myeloid), 3 days incubation
[11] = Homo sapiens, 72 h, HL-60 (Myeloid), 3 days incubation
[12] = Homo sapiens, 72 h, PM-1 (T-lymphoid), 3 days incubation
[13] = Homo sapiens, U-937, 72 h, U937 (Monocytic), 3 days incubation
[14] = T-cell, 72 h, PHA-blast (human T-cells), 3 days incubation
[15] = PHA-blast (human T-cells), 3 days incubation
[16] = CEM (T-lymphoid), 3 days incubation
[17] = Molt 4 (T-lymphoid), 3 days incubation
[18] = KG-1 (Myeloid), 3 days incubation
[19] = HL-60 (Myeloid), 3 days incubation
[20] = PM-1 (T-lymphoid), 3 days incubation
[21] = U937 (Monocytic), 3 days incubation

Structure (SMILES)	EC50 ([2]; Homo sapiens, T-cell, 72 h) [nM]	EC50 (CEM (T-lymphoid); [8]) [nM]	EC50 (Molt 4 (T-lymphoid); [9]) [nM]	EC50 (KG-1 (Myeloid); [10]) [nM]	EC50 (HL-60 (Myeloid); [11]) [nM]	EC50 (RL (B-lymphoid)) [nM]	EC50 (Daudi (B-lymphoid); Homo sapiens, 72 h) [nM]	EC50 (Raji (B-lymphoid); Homo sapiens, 72 h) [nM]	EC50 (PM-1 (T-lymphoid); [12]) [nM]	EC50 (U937 (Monocytic); [13]) [nM]	EC50 [3] [nM]	other results
C[C@H](NP(=O)(COCCn1cnc2c(NC3CC3)nc(N)nc21)Oc1ccccc1)C(=O)OC(C)(C)C (single isomer, unassigned) [MonoAlatBu(A)]												PBMC to Plasma ratio [1]: 19
Nc1ccn([C@@H]2O[C@H](CO)[C@@H](O)[C@@H]2O)c(=O)n1 [Ara-C, Cytarabine]	1820	143	23	56	212	610	209	23	194	38	23 to 1820	
CC(C)OC(=O)[C@H](C)NP(=O)(COCCn1cnc2c(NC3CC3)nc(N)nc21)N[C@@H](C)C(=O)OC(C)C [BisAlaiPr]												PBMC to Plasma ratio [1]: 1.2
Nc1nc(Cl)nc2c1ncn2[C@H]1C[C@H](O)[C@@H](CO)O1 [Cladribine]	296	1170	74	89	50	4	525	12	40	20		
Nc1nc(Cl)nc2c1ncn2[C@@H]1O[C@H](CO)[C@@H](O)[C@@H]1F [Clofarabine]	62	418	25	60	73	49.5	221	19.4	145	37	25 to 418	EC50 [4]: 126 nM; EC50 [5]: 146 nM; EC50 [6]: 93 nM
CCOC(=O)C(C)NP(=O)(COCCn1cnc2c(NC3CC3)nc(N)nc21)NC(C)C(=O)OCC (stereo not drawn) [Compound 1]		156	27.3	1040	214	78	27	89	125	394	27 to 1040	EC50 [2, 14]: 135 nM; EC50 [4]: 42 nM; EC50 [5]: 30 nM; EC50 [6]: 14 nM; hygroscopicity (Hygroscopicity): hygroscopic
Nc1ncn([C@H]2C[C@H](O)[C@@H](CO)O2)c(=O)n1 [Decitabine]	204											EC50 (CEM (T-lymphoid); Homo sapiens, T-lymphoid, 72 h): 3000 nM; EC50 (Molt 4 (T-lymphoid); Homo sapiens, MOLT-4, 72 h): 580 nM; EC50 (KG-1 (Myeloid); Homo sapiens, KG-1, 72 h): 83 nM; EC50 (HL-60 (Myeloid); Homo sapiens, HL-60, 72 h): 3830 nM; EC50 (PM-1 (T-lymphoid); Homo sapiens, T-lymphoid, 72 h): > 20000 nM; EC50 (U937 (Monocytic); Homo sapiens, U-937, 72 h): 77 nM
OC[C@H]1O[C@@H](n2cnc3c2NC=NC[C@H]3O)C[C@@H]1O [Deoxy coformycin]	> 200000		> 200000	> 200000	> 200000					> 200000	> 200000	
COc1cccc2c1C(=O)c1c(O)c3c(c(O)c1C2=O)C[C@@](O)(C(=O)CO)C[C@@H]3O[C@H]1C[C@H](N)[C@H](O)[C@H](C)O1 [Doxorubicin]	7.6		1.2	28	24	25	3.8	8.6	29.5	13		
Nc1nc(F)nc2c1ncn2[C@@H]1O[C@H](CO)[C@@H](O)[C@@H]1O [Fludarabine des-phosphate]	1100	> 40000	1550	4520	1770				12900	300		
Nc1nc(NC2CC2)c2ncn(CCOCP(=O)(O)O)c2n1 [GS-8369, 9-(2-phosphonylmethoxyethyl)-N^6-cyclopropyl-2,6-diaminopurine]												EC50 [2, 15]: 2350 nM; EC50 (CEM (T-lymphoid); [16]): 2220 nM; EC50 (Molt 4 (T-lymphoid); [17]): 1470 nM; EC50 (KG-1 (Myeloid); [18]): 1110 nM; EC50 (HL-60 (Myeloid); [19]): 1610 nM; EC50 (Daudi (B-lymphoid)): 1840 nM; EC50 (PM-1 (T-lymphoid); [20]): 6720 nM; EC50 (U937 (Monocytic); [21]): 4480 nM; antiproliferative and differentiation-inducing effect [7]: effective
Nc1ccn([C@@H]2O[C@H](CO)[C@@H](O)C2(F)F)c(=O)n1 [Gemcitabine]		21	8.5	5.7	8.6	18	6	3.4	16	31	3.4 to 18	EC50 [2, 14]: 9.6 nM
CC(C)OC(=O)[C@H](C)NP(=O)(COCCn1cnc2c(NC3CC3)nc(N)nc21)Oc1ccccc1 (stereo partly drawn) [MonoAlaiPr]												PBMC to Plasma ratio [1]: 17
C[C@H](NP(=O)(COCCn1cnc2c(NC3CC3)nc(N)nc21)Oc1ccccc1)C(=O)OC(C)(C)C (stereo partly drawn) [MonoAlatBu]												PBMC to Plasma ratio [1]: 12
Nc1nc(N)c2ncn(CCOCP(=O)(O)O)c2n1 [PMEDAP, 9-(2-phosphonylmethoxyethyl)-2,6-diaminopurine]		19900	27900	7630	21700		14000	24900	22700	24400		EC50 [2, 14]: 8950 nM
Nc1nc2c(ncn2CCOCP(=O)(O)O)c(=O)[nH]1 [PMEG, 9-(2-phosphonylmethoxyethyl)guanine]												EC50 [2, 15]: 1680 nM; EC50 (CEM (T-lymphoid); [16]): 5200 nM; EC50 (Molt 4 (T-lymphoid); [17]): 1740 nM; EC50 (KG-1 (Myeloid); [18]): 2930 nM; EC50 (HL-60 (Myeloid); [19]): 3920 nM; EC50 (Daudi (B-lymphoid)): 994 nM; EC50 (Raji (B-lymphoid)): 2720 nM; EC50 (PM-1 (T-lymphoid); [20]): 4020 nM; EC50 (U937 (Monocytic); [21]): 4010 nM
CC[C@]1(O)C[C@H]2CN(CCc3c([nH]c4ccccc34)[C@@](C(=O)OC)(c3cc4c(cc3OC)N(C=O)[C@H]3[C@@](O)(C(=O)OC)[C@H](OC(C)=O)[C@]5(CC)C=CCN6CC[C@]43[C@@H]65)C2)C1 [Vincristine]		2	0.4	3.2	2	1.4	0.6	2.5	5.3	2.8	0.6 to 5.3	EC50 [2, 14]: 2.4 nM; EC50 [4]: 0.9 nM; EC50 [5]: 0.9 nM; EC50 [6]: 0.9 nM
